Test results: US7446199B2, “Compositions useful as inhibitors of protein kinases” (Vertex Pharmaceuticals Incorporated, priority 2003, dated 2008)
Several values for one entry are separate records, joined by “and”; a condition that tells them apart may be missing. Equal entries are not always repeated.

Experiments:
Assay type in all cases: biochemical
c-KIT = target: T1, c-KIT (Homo sapiens, UniProt P10721); assay: Inhibition of c-KIT, radiometric filter-binding assay; conditions: 700 μM ATP, 0.5 mg/mL pE4Y, room temperature
T1 construct: 0.02% BSA and 25 nM c-KIT
Method in brief: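 Radiometric filter-binding: 25 nM c-KIT (enzyme in the Solution 2 mix) with poly(Glu,Tyr) 4:1 substrate at 0.5 mg/mL and [γ-^33P]ATP at 700 μM (both final), in HEPES pH 7.5/MgCl2/NaCl/DTT/BSA with 2.5% DMSO. Incubated 20 min at room temperature, stopped with TCA, and ^33P incorporation counted on filters. 12-point titration, final compound typically 0.01-5 μM; IC50 or Ki from curve fit.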

KDR = KDR (Homo sapiens, UniProt P35968); assay: KDR enzyme assay, coupled enzyme assay; conditions: 300 μM ATP, 10 μM poly E4Y, 30 nM KDR, 37° C.
Method in brief: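 Coupled enzyme (PK/LDH, NADH) assay with 30 nM KDR in 200 mM HEPES 7.5, 10 mM MgCl2, 25 mM NaCl, 1 mM DTT, 1.5% DMSO; 300 μM ATP, 10 μM poly E4Y. Compound at 30 μM final, preincubated ~10 min at 37 °C before ATP start; rates read over 5 min at 37 °C.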

c-Met = c-Met (Homo sapiens, UniProt P08581); assay: Ki determination for the inhibition of c-Met, coupled enzyme system; conditions: 200 μM ATP, 10 μM polyGluTyr, 80 nM c-Met, 30° C.
Method in brief: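 Coupled pyruvate kinase/lactate dehydrogenase NADH assay with 80 nM c-Met, 200 μM ATP, 10 μM polyGluTyr in pH 7.5 HEPES, 1.5% DMSO at 30° C. Compound (0.006–12.5 μM final, 12-point) preincubated 10 min; ATP started reaction, rates read over 10 min; Ki derived from rate versus inhibitor concentration.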

T1 sequence (P10721 26-976): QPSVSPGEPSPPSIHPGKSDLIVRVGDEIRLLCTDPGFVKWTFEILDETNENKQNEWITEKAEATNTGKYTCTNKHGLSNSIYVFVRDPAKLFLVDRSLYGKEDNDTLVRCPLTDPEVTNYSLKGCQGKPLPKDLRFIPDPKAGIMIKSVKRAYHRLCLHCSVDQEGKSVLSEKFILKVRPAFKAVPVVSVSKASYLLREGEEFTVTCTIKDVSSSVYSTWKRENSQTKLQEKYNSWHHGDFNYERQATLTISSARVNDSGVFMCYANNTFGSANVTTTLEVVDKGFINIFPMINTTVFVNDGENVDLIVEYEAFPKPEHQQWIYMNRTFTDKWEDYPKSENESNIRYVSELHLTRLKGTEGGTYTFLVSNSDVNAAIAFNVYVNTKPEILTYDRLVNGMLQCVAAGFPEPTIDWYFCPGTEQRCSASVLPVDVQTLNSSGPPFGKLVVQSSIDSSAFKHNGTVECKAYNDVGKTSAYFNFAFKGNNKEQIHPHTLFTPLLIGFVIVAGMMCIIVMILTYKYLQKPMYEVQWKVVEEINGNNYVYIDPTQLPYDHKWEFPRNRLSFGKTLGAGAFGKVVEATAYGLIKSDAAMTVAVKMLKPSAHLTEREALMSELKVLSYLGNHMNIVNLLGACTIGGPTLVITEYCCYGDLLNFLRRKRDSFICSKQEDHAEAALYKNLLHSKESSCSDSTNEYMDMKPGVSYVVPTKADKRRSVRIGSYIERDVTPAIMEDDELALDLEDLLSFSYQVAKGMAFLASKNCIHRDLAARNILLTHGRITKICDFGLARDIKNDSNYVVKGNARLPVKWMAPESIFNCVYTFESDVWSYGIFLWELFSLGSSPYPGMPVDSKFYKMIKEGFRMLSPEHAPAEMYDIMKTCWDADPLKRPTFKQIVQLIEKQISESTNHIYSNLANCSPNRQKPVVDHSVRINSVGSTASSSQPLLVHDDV
Chain of KDR (P35968 20-1356): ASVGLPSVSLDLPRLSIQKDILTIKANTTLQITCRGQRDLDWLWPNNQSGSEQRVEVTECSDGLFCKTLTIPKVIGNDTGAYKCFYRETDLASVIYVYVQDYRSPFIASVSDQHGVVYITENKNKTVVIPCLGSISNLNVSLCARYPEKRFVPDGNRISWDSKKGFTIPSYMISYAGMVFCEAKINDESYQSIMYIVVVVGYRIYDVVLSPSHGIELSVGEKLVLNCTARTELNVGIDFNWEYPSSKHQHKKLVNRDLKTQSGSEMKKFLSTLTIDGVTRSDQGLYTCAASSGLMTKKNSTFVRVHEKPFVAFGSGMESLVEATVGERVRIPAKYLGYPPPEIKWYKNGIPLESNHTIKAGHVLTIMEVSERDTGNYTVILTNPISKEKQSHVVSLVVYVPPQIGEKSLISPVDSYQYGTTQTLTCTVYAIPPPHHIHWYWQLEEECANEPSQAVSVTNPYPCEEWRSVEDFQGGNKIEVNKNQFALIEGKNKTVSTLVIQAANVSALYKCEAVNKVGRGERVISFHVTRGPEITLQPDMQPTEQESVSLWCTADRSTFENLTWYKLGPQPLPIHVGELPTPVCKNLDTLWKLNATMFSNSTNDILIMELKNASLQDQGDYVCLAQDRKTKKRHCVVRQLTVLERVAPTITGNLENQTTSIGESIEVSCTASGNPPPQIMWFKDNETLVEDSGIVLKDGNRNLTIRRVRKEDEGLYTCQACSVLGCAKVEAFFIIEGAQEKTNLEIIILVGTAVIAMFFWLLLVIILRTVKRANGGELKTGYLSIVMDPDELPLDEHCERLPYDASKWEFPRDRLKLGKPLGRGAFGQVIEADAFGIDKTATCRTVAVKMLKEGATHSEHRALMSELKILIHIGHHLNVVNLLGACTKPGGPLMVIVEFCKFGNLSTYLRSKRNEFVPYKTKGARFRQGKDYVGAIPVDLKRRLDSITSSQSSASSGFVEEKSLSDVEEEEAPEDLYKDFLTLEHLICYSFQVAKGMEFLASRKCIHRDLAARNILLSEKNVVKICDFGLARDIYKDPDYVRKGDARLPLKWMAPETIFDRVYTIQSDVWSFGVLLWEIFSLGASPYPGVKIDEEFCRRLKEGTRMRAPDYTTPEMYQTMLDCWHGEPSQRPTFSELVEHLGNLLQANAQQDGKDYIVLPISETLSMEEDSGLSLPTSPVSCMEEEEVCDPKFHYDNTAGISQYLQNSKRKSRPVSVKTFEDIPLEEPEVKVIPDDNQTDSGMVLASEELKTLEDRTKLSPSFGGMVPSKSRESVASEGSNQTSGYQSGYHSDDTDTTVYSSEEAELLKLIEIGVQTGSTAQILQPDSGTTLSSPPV
Chain of c-Met (P08581 25-1390): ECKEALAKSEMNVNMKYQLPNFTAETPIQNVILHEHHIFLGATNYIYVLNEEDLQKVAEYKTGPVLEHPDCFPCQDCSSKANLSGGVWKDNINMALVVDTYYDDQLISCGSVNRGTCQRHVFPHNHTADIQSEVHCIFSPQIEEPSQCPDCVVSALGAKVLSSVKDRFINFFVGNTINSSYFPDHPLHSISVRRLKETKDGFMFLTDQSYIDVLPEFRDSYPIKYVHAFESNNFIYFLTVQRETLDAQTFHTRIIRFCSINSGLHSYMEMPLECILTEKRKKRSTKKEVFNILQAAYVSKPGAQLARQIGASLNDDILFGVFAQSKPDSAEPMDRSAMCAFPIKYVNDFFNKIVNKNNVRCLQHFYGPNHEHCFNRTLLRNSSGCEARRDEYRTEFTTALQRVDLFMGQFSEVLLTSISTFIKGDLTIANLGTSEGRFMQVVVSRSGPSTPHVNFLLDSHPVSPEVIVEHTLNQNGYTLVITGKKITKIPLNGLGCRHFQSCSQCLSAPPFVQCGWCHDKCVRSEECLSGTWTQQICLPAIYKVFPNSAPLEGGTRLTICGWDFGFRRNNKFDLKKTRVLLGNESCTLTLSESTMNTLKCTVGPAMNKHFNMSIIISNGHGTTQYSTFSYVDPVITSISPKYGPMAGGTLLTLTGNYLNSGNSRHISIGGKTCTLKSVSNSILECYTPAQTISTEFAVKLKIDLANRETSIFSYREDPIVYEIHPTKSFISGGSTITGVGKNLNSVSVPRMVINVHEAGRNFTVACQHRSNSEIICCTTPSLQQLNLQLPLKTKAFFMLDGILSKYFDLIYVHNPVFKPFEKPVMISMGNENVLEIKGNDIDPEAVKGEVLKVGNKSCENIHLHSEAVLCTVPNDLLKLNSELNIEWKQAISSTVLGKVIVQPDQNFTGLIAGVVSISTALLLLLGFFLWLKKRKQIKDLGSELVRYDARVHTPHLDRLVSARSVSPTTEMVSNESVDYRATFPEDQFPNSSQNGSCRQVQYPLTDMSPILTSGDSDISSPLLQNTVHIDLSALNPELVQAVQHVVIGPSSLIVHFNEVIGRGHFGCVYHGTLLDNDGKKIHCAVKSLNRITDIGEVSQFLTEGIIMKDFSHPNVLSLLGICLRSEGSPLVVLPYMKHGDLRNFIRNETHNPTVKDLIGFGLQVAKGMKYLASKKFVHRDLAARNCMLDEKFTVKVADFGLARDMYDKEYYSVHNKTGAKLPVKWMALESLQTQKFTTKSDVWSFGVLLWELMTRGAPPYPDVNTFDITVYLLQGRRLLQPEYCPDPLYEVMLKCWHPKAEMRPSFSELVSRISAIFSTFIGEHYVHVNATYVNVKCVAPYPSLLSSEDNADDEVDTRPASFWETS

| Ki (c-KIT) | Ki (KDR) | Ki (c-Met) | SMILES |
| --- | --- | --- | --- |
| < 200 nM | < 200 nM | < 200 nM | Fc1cccc(-c2cnoc2-c2c[nH]c3ncc(-c4ccc(N5CCNCC5)cc4)cc23)c1F [Compound 68, 3-[4-(2,3-Difluoro-phenyl)-isoxazol-5-yl]-5-(4-piperazin-1-yl-phenyl)-1H-pyrrolo[2,3-b]pyridine] |
| < 200 nM | 200 to 1000 nM | < 200 nM | CN1CCN(c2ccc(-c3cnc4[nH]cc(-c5nncn5-c5cccc(F)c5F)c4c3)cc2)CC1 [Compound 110, 3-[4-(2,3-Difluoro-phenyl)-4H-[1,2,4]triazol-3-yl]-5-[4-(4-methyl-piperazin-1-yl)-phenyl]-1H-pyrrolo[2,3-b]pyridine] |
| 200 to 1000 nM | 200 to 1000 nM | < 200 nM | CN1CCN(c2ccc(-c3cnc4[nH]cc(-c5nncn5-c5cccc(F)c5F)c4c3)cn2)CC1 [Compound 112] |
| < 200 nM | < 200 nM | < 200 nM | Fc1cccc(-c2cnoc2-c2c[nH]c3ncc(-c4ccc(CN5CCCC5)cc4)cc23)c1F [Compound 93, 3-[4-(2,3-Difluoro-phenyl)-isoxazol-5-yl]-5-(4-pyrrolidin-1-ylmethyl-phenyl)-1H-pyrrolo[2,3-b]pyridine] |
| < 200 nM | < 200 nM | < 200 nM | Fc1ccc(-c2cnc3[nH]cc(-c4oncc4-c4cccc(F)c4F)c3c2)cn1 [Compound 69, 3-[4-(2,3-Difluoro-phenyl)-isoxazol-5-yl]-5-(6-fluoro-pyridin-3-yl)-1H-pyrrolo[2,3-b]pyridine] |
| < 200 nM | 200 to 1000 nM | < 200 nM | Fc1cccc(-c2cnoc2-c2c[nH]c3ncc(-c4ccncc4)cc23)c1F [Compound 57, 3-[4-(2,3-Difluoro-phenyl)-isoxazol-5-yl]-5-pyridin-4-yl-1H-pyrrolo[2,3-b]pyridine] |
| 200 to 1000 nM | 200 to 1000 nM | < 200 nM | CN1CCCN(c2ccc(-c3cnc4[nH]cc(-c5nncn5-c5cccc(F)c5F)c4c3)cn2)CC1 [Compound 117, 3-[4-(2,3-Difluoro-phenyl)-4H-[1,2,4]triazol-3-yl]-5-[6-(4-methyl-[1,4]diazepan-1-yl)-pyridin-3-yl]-1H-pyrrolo [2,3-b]-pyridine] |
| < 200 nM | < 200 nM | < 200 nM | CC(=O)Nc1cccc(-c2cnc3[nH]cc(-c4oncc4-c4cccc(F)c4F)c3c2)c1 [Compound 65, N-(3-{3-[4-(2,3-Difluoro-phenyl)-isoxazol-5-yl]-1H-pyrrolo[2,3-b]pyridin-5-yl}-phenyl)-acetamide] |
| < 200 nM | < 200 nM and 1000 to 12500 nM | < 200 nM | Nc1cccc(-c2cnc3[nH]cc(-c4oncc4-c4cccc(F)c4F)c3c2)c1 [Compound 86, 3-{3-[4-(2,3-Difluoro-phenyl)-isoxazol-5-yl]-1H-pyrrolo [2,3-b]pyridin-5-yl}-phenylamine] |
| < 200 nM | 200 to 1000 nM | < 200 nM | CN(C)Cc1ccc(-c2cnc3[nH]cc(-c4oncc4-c4cccc(F)c4F)c3c2)cc1 [Compound 91, (4-{3-[4-(2,3-Difluoro-phenyl)-isoxazol-5-yl]-1H-pyrrolo[2,3-b]pyridin-5-yl}-benzyl)-dimethyl-amine] |
| < 200 nM | 200 to 1000 nM | < 200 nM | Cc1noc(-c2c[nH]c3ncc(-c4ccc(N5CCN(C)CC5)cc4)cc23)c1-c1cccc(F)c1F [Compound 135, 3-[4-(2,3-Difluoro-phenyl)-3-methyl-isoxazol-5-yl]-5-[4-(4-methyl-piperazin-1-yl)-phenyl]-1H-pyrrolo[2,3-b]pyridine] |
| < 200 nM | < 200 nM | < 200 nM | Nc1ccc(-c2cnc3[nH]cc(-c4oncc4-c4cccc(F)c4F)c3c2)cc1 [Compound 90, 4-{3-[4-(2,3-Difluoro-phenyl)-isoxazol-5-yl]-1H-pyrrolo [2,3-b]pyridin-5-yl}-phenylamine] |
| < 200 nM | 1000 to 12500 nM | < 200 nM | Fc1cccc(-c2cnoc2-c2c[nH]c3ncc(-c4cncnc4)cc23)c1F [Compound 85, 3-[4-(2,3-Difluoro-phenyl)-isoxazol-5-yl]-5-pyrimidin-5-yl-1H-pyrrolo[2,3-b]pyridine] |
| < 200 nM | < 200 nM | < 200 nM | CN(C)C1CC=C(c2cnc3[nH]cc(-c4oncc4-c4cccc(F)c4F)c3c2)CC1 (stereo not drawn) [Compound 138, (4-{3-[4-(2,3-Difluoro-phenyl)-isoxazol-5-yl]-1H-pyrrolo[2,3-b]pyridin-5-yl}-cyclohex-3-enyl)-dimethyl-amine] |
| < 200 nM | 200 to 1000 nM | < 200 nM | Oc1cccc(-c2cnc3[nH]cc(-c4oncc4-c4cccc(F)c4F)c3c2)c1 [Compound 87, 3-{3-[4-(2,3-Difluoro-phenyl)-isoxazol-5-yl]-1H-pyrrolo [2,3-b]pyridin-5-yl}-phenol] |

Continued, compound first:

| SMILES | Ki (c-KIT) | Ki (KDR) | Ki (c-Met) |
| --- | --- | --- | --- |
| Fc1cccc(-n2cnnc2-c2c[nH]c3ncc(-c4ccc(N5CCC[C@H]5CN5CCCC5)nc4)cc23)c1F [Compound 115, 3-[4-(2,3-Difluoro-phenyl)-4H-[1,2,4]triazol-3-yl]-5-[6-(2-pyrrolidin-1-ylmethyl-pyrrolidin-1-yl)-pyridin-3-yl]-1H-pyrrolo[2,3-b]pyridine] | 200 to 1000 nM | 1000 to 12500 nM | < 200 nM |
| Fc1cccc(-c2cnoc2-c2c[nH]c3ncc(-c4c[nH]cn4)cc23)c1F [Compound 76, 3-[4-(2,3-Difluoro-phenyl)-isoxazol-5-yl]-5-(3H-imidazol-4-yl)-1H-pyrrolo[2,3-b]pyridine] | < 200 nM | 200 to 1000 nM | < 200 nM |
| COC(=O)c1cnc2[nH]cc(-c3oncc3-c3cccc(F)c3F)c2c1 [Compound 105, 3-[4-(2,3-Difluoro-phenyl)-isoxazol-5-yl]-1H-pyrrolo[2,3-b]pyridine-5-carboxylic acid methyl ester] | < 200 nM | 200 to 1000 nM | < 200 nM |
| Fc1cccc(-c2cnoc2-c2c[nH]c3ncccc23)c1F [Compound 1, 3-[4-(2,3-Difluoro-phenyl)-isoxazol-5-yl]-1H-pyrrolo[2,3-b]pyridine] | < 200 nM | 1000 to 12500 nM | < 200 nM |
| Fc1cccc(-c2cnoc2-c2c[nH]c3ncc(C4=CCC(N5CCOCC5)CC4)cc23)c1F (stereo not drawn) [Compound 139, 3-[4-(2,3-Difluoro-phenyl)-isoxazol-5-yl]-5-(4-morpholin-4-yl-cyclohex-1-enyl)-1H-pyrrolo[2,3-b]pyridine] | < 200 nM | 200 to 1000 nM | < 200 nM |
| NC1CC=C(c2cnc3[nH]cc(-c4oncc4-c4cccc(F)c4F)c3c2)CC1 (stereo not drawn) [Compound 137, 4-{3-[4-(2,3-Difluoro-phenyl)-isoxazol-5-yl]-1H-pyrrolo [2,3-b]pyridin-5-yl}-cyclohex-3-enylamine] | < 200 nM | < 200 nM | < 200 nM |
| CN(C)CCNc1ccc(-c2cnc3[nH]cc(-c4nncn4-c4cccc(F)c4F)c3c2)cn1 [Compound 119, N′-(5-{3-[4-(2,3-Difluoro-phenyl)-4H-[1,2,4]triazol-3-yl]-1H-pyrrolo[2,3-b]pyridin-5-yl}-pyridin-2-yl)-N,N-dimethyl-ethane-1,2-diamine] | 200 to 1000 nM | 200 to 1000 nM | < 200 nM |
| CS(=O)(=O)NC1CC=C(c2cnc3[nH]cc(-c4oncc4-c4cccc(F)c4F)c3c2)CC1 (stereo not drawn) [Compound 140, N-(4-{3-[4-(2,3-Difluoro-phenyl)-isoxazol-5-yl]-1H-pyrrolo[2,3-b]pyridin-5-yl}-cyclohex-3-enyl)-methanesulfonamide] | < 200 nM | < 200 nM | < 200 nM |
| CN(C)Cc1ccc(-c2cnc3[nH]cc(-c4oncc4-c4cccc(F)c4F)c3c2)nc1 [Compound 84, (6-{3-[4-(2,3-Difluoro-phenyl)-isoxazol-5-yl]-1H-pyrrolo[2,3-b]pyridin-5-yl}-pyridin-3-ylmethyl)-dimethyl-amine] | < 200 nM | < 200 nM | < 200 nM |
| Nc1ccnc(-c2cnc3[nH]cc(-c4oncc4-c4cccc(F)c4F)c3c2)c1 [Compound 83, 2-{3-[4-(2,3-Difluoro-phenyl)-isoxazol-5-yl]-1H-pyrrolo [2,3-b]pyridin-5-yl}-pyridin-4-ylamine] | < 200 nM | < 200 nM | < 200 nM |
| Fc1ccc(-c2cnoc2-c2c[nH]c3ncccc23)c(F)c1F [Compound 40, 3-[4-(2,3,4-Trifluoro-phenyl)-isoxazol-5-yl]-1H-pyrrolo [2,3-b]pyridine] | 200 to 1000 nM | 200 to 1000 nM | < 200 nM |
| Oc1cnc2[nH]cc(-c3oncc3-c3cccc(F)c3F)c2c1 [Compound 43, 3-[4-(2,3-Difluoro-phenyl)-isoxazol-5-yl]-1H-pyrrolo[2,3-b]pyridin-5-ol] | < 200 nM | 200 to 1000 nM | < 200 nM |
| COc1ccnc(-c2cnc3[nH]cc(-c4oncc4-c4cccc(F)c4F)c3c2)c1 [Compound 78, 3-[4-(2,3-Difluoro-phenyl)-isoxazol-5-yl]-5-(4-methoxy-pyridin-2-yl)-1H-pyrrolo[2,3-b]pyridine] | < 200 nM | < 200 nM | < 200 nM |
